Data from PubChem BioAssay (NCI).
Values joined by “and” are separate entries in the source; they are usually repeats but may differ in a detail not shown here. Equal values may be shown once.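 Cells were grown in 96-well plates and exposed to each compound for 48 hours at five concentrations; endpoints were interpolated linearly between bracketing concentrations, or set to the highest concentration if not reached. The concentration for 50% growth inhibition is given as GI50. At the TGI there is no net growth.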

What was measured:
Test in all cases: inhibition of tumour cell growth, NCI panel, 48 h
EKVX NSCLC = test system: EKVX NSCLC
UACC-257 melanoma = test system: UACC-257 melanoma
BT-549 breast = test system: BT-549 breast
HS 578T breast = test system: HS 578T breast
SF-268 CNS = test system: SF-268 CNS
IGROV1 ovarian = test system: IGROV1 ovarian
OVCAR-4 ovarian = test system: OVCAR-4 ovarian
SNB-19 CNS = test system: SNB-19 CNS
NCI-H23 lung = test system: NCI-H23 lung
SN12C renal = test system: SN12C renal

SMILES | TGI (EKVX NSCLC) | TGI (UACC-257 melanoma) | TGI (BT-549 breast) | TGI (HS 578T breast) | TGI (SF-268 CNS) | TGI (IGROV1 ovarian) | TGI (OVCAR-4 ovarian) | TGI (SNB-19 CNS) | TGI (NCI-H23 lung) | TGI (SN12C renal) | GI50 (EKVX NSCLC) | GI50 (UACC-257 melanoma) | GI50 (BT-549 breast) | GI50 (HS 578T breast) | GI50 (SF-268 CNS) | GI50 (IGROV1 ovarian) | GI50 (OVCAR-4 ovarian) | GI50 (SNB-19 CNS) | GI50 (NCI-H23 lung) | GI50 (SN12C renal)
NC(=O)[C@H](Cc1ccc(O)cc1)Nc1c(O)c2c(c(O)c1Cl)C(=O)C=CC2=O | > 10 µM | > 10 µM | 5.26 µM | > 9.16 µM | > 10 µM | 4.66 µM | 3.41 µM | > 10 µM | > 8.2 µM | > 6.94 µM |  |  |  |  |  |  |  |  |  | 
CC(Nc1ccc(Cl)cc1)c1ccncc1 (configuration not stated) | > 100 µM | > 100 µM | > 100 µM | > 100 µM | > 100 µM | > 100 µM | > 100 µM | > 100 µM | > 100 µM | > 100 µM |  |  |  |  |  |  |  |  |  | 
N#C/C(=C\c1ccc2[nH]ccc2c1)C(=O)NCCCCNC(=O)/C(C#N)=C/c1ccc2[nH]ccc2c1 | > 31.6 µM | > 31.6 µM | > 10 µM | > 10 µM | > 31.6 µM | > 31.6 µM | > 31.6 µM | > 31.6 µM | > 31.6 µM | > 31.6 µM |  |  |  |  |  |  |  |  |  | 
COc1ccc(N2C(=O)C3c4[nH]c5c(C)cccc5c4C4CCC(C(C)C)CC4C3C2=O)cc1 (configuration not stated) | 40.6 µM | > 100 µM | 56 µM | 27.7 µM | 22 µM | 23.5 µM | 42.3 µM | > 100 µM | 40.7 µM | 98 µM |  |  |  |  |  |  |  |  |  | 
CCOC(=O)NC(=S)N(CC(=O)c1cc(OC)c(OC)c(OC)c1)c1ccc(Cl)cc1 | > 100 µM | > 100 µM | > 100 µM | > 100 µM | > 100 µM | > 100 µM | > 100 µM | > 100 µM | > 100 µM | > 100 µM | 62.4 µM | 25.1 µM | 41.6 µM | 96.4 µM | > 100 µM | 70.1 µM | 60.6 µM | > 100 µM | > 100 µM | > 100 µM
C=C1c2nc3ccccc3n2C=C(c2ccc(C)cc2)N1c1ccc(OC)cc1 | > 100 µM | > 100 µM | > 100 µM | > 100 µM | > 100 µM | > 100 µM | > 100 µM | > 100 µM | > 100 µM | > 100 µM |  |  |  |  |  |  |  |  |  | 
Cn1c(=O)c2c(nc3[nH]c(=O)c(Br)cn32)n(C)c1=O | > 100 µM | > 100 µM | > 100 µM | > 100 µM | > 100 µM | > 100 µM | > 100 µM | > 100 µM | > 100 µM | > 100 µM |  |  |  |  |  |  |  |  |  | 
C[n+]1cccc2ccc3cccnc3c21 | > 100 µM | > 100 µM | > 100 µM | 64.3 µM | 55.8 µM | > 100 µM | > 100 µM | > 100 µM | > 100 µM | > 100 µM |  |  |  |  |  |  |  |  |  | 
Cc1nc(NC(C)(CO)CO)nc(N/N=C/c2ccc(Cl)cc2)c1C(=O)Nc1ccc(Cl)cc1 | > 100 µM | > 100 µM | > 100 µM | > 100 µM | > 100 µM | > 100 µM | > 100 µM | > 100 µM | > 100 µM | > 100 µM |  |  |  |  |  |  |  |  |  | 
O=[N+]([O-])c1ccc(-n2nc3ccc4nonc4c3n2)cc1 | > 100 µM | > 100 µM | 63.7 µM | 50.1 µM | > 100 µM | > 100 µM | 47 µM | > 100 µM | > 100 µM | > 100 µM |  |  |  |  |  |  |  |  |  | 
Nc1[nH]c(=O)nc2c1ncn2C1OC(CO)C(O)C1O (configuration not stated) | > 100 µM | > 100 µM | > 100 µM | > 100 µM | > 100 µM | > 100 µM | > 100 µM | > 100 µM | > 100 µM | > 100 µM |  |  |  |  |  |  |  |  |  | 
COC(=O)C1OC(O[C@H]2CC[C@]3(C)[C@H]4CC=C5[C@@H]6CC(C)(C)CC[C@]6(C(=O)OC6OCC(O)C(O)C6OC6OC(C)C(OC7OCC(O)C(O)C7O)C(O)C6O)[C@H](O)C[C@@]5(C)[C@]4(C)CC[C@H]3C2(C)C)C(O)C(O)C1O (some centres not stated) | 8.04 µM and 11.1 µM | 8.87 µM and 18.6 µM | 8.86 µM and 21.8 µM | 35.9 µM and 35.2 µM | 22.4 µM and 23.2 µM | > 80.4 µM and 26.8 µM | 6.7 µM and 16.5 µM | 17.5 µM and 21.9 µM | 4.76 µM and 6.24 µM | 3.62 µM and 3.7 µM |  |  | 3.06 µM and 7.31 µM |  |  |  | 0.927 µM and 4.32 µM |  |  | 
COc1cc2c(/C=C3/C(=O)Nc4ccccc43)c(Cl)n(Cc3ccc(Cl)cc3)c2cc1C | 44.9 µM | 8.43 µM | 1.92 µM | 9.01 µM | 21.3 µM | 16 µM | 18.6 µM | 15.8 µM | 0.644 µM | 1.06 µM |  |  |  |  |  |  |  |  |  | 
C=C(Br)CN=CN(C)C | > 100 µM | > 100 µM | > 100 µM | > 100 µM | > 100 µM | > 100 µM | > 100 µM | > 100 µM | > 100 µM | > 100 µM |  |  |  |  |  |  |  |  |  | 
CCOC(=O)c1cc(-c2ccc(OC)cc2)c([N+](=O)[O-])[nH]1 | > 10 µM | > 10 µM | > 10 µM | > 10 µM | > 10 µM | > 10 µM | > 10 µM | > 10 µM | > 10 µM | > 10 µM |  |  |  |  |  |  |  |  |  | 
O=C1Nc2ccccc2/C1=C\c1c(Cl)n(-c2ccccc2)c2ccccc12 | 7.7 µM | 36.5 µM | 29.8 µM | 5.71 µM | 6.45 µM | 9.64 µM | 21.6 µM | 13.3 µM | 14 µM | 14.6 µM |  |  |  |  |  |  |  |  |  | 
Oc1ccc(C(O)C2CCCCN2)cc1O (configuration not stated) | > 100 µM | > 100 µM | > 100 µM | > 100 µM | > 100 µM | > 100 µM | > 100 µM | > 100 µM | > 100 µM | > 100 µM |  |  |  |  |  |  |  |  |  | 
O=S(=O)(Nc1nc2ccccc2nc1N1CCCCCC1)c1ccccc1 | > 100 µM | 99.2 µM | 50.1 µM | 83.9 µM | > 100 µM | > 100 µM | 36.4 µM | > 100 µM | 44.2 µM | > 100 µM |  |  |  |  |  |  |  |  |  | 
N#Cc1c(NC(=S)Nc2ccc(Cl)cc2)sc2c1CCN(N1CCc3c(sc(NC(=S)Nc4ccc(Cl)cc4)c3C#N)C1)C2 | > 100 µM | > 100 µM | > 100 µM | > 100 µM | > 100 µM | 47.8 µM | > 100 µM | > 100 µM | > 100 µM | > 100 µM |  |  |  |  |  |  |  |  |  | 
C/C(=N\Nc1nc2ccccc2s1)c1ccncn1 | 10.2 µM | > 100 µM | 21.4 µM | 26.2 µM | 9.56 µM | 4.39 µM | 42.4 µM | > 28.4 µM | 5.55 µM | 18 µM |  |  |  |  |  |  |  |  |  | 
